In patent US10351566B2, “Therapeutic compounds for pain and synthesis thereof” (priority 2015, dated 2019):
Entries after “also recorded” stand apart in the source; their conditions may differ. Read-outs that look alike come from different tables or passages of the source.

Key:
[1] = in vivo
Source text: Formula 1 was discovered following a comprehensive Senerga® Phenotypic screening.

[2] = test system: CCI-induced neuropathic pain; test: CCI-induced neuropathic pain in the rat, oral; assay type: in vivo; details: CCI rats
Description: Study plan in brief: SD male rats were operated as described by Bennet and Xie7. On study day 7, the sensitivity of the animals to von Frey was assessed. […] The animals were then dosed with either vehicle, gabapentin or Formula 1. Treatment with Formula 1 was not effective 2 h post-single dose.

[3] = assay type: in vivo; details: naïve rats, dosing for 7 days
Source text: (§1) At 4 days, vehicle-treated animals gained approximately 1% body weight, going from 25.24±0.74 g to 25.50±0.64 g. Formula 1 treated animals went from 25.28±1.04 g to 25.82±1.25 g.

[4] = assay type: in vivo; details: naïve mice, 10 mg/kg IP
Description: Changes in responses of normal withdrawal threshold to heat and cold stimuli in naïve animals following drug treatment may reflect a CNS effect, as in the case of cannabinoids or opioids. Therefore, the response of the naïve mice post-Formula 1 administration at a dose of 10 mg/kg IP was assessed (Table 5).

[5] = test system: CCI-induced neuropathic pain; test: CCI model in mice, IP route; assay type: in vivo; details: CCl model
Source text: IP route of administration was used for initial proof of principle studies with Formula 1. However, the chosen route of administration in most of the studies conducted with Formula 1 was either SC or PO. A brief protocol outline is provided in each section, for the purpose of understanding the results without elaborating on all the detailed procedures.
Table 7 summarizes the activity of Formula 1 in mice models of neuropathic pain following repeated daily administration using different routes of administration. […] Treatment with Formula 1 show activity without CNS effect.

[6] = assay type: in vivo; details: mice
Description: Fecal excretion of the parent compound was evaluated following oral administration of Formula 1 in mice at a dose of 50 mg/kg and intravenous administration at a dose of 5 mg/kg. Peak concentrations in feces were 150 μg/g and 33 μg/g from oral and intravenous dosing, respectively. These peak concentrations were generally achieved within 1 h post-oral dosing and within 5 min post-intravenous doing. The concentrations remained high (greater than 1 μg/g) even after 8 h post-dosing by both administration routes (FIG. 18).

[7] = test system: selected targets (including some important cardiovascular safety-related targets); details: at 10 μM
Description: A Cerep activity screen was conducted and was negative against the selected targets at 10 μM (including some important cardiovascular safety-related targets) for Formula 1.

[8] = assay type: in vivo, mice; details: Brain, SC, Mean
[9] = assay type: in vivo, mice
Description: as §1
Animals treated with Formula 1 at a dose of 10 mg/kg IP for a period of 31 days gained […] body weight (changing from 21.44±0.18 g to 25.49±0.46 g). Vehicle treated animals gained […] body weight (changing from 21.45±0.19 g to 23.97±0.62 g; p=0.07), therefore no significant changes were found.

[10] = Tolerability / repeated dosing safety in mice; assay type: in vivo; details: for Findings: Mice
Description: The tolerability of Formula 1 was evaluated in mice and rats.

in vitro = in vitro ADME; details: 1 μM, read-out: plasma protein bound (converted)
Description: The plasma protein binding assay for Formula 1 was conducted in mouse and human plasma at a single concentration of 1 μM using the method of equilibrium dialysis. […] The plasma protein binding of the compound is acceptable.

[11] = test system: Taxol-induced neuropathic pain; test: Taxol-induced neuropathic pain in mice, oral route; assay type: in vivo
Description: Study outline in brief: Animals were dosed daily with Taxol for a period of 8 consecutive days (Day 0 to Day 7). On study day 8, prior to drug dosing, the decrease in withdrawal force (tactile allodynia) was verified by applying the von Frey test. After assigning the animals to their treatment groups, the animals were treated daily for a period of 5 days with either vehicle or Formula 1 at different doses. Gabapentin at a dose of 150 mg/kg was dosed only on days of testing (day 8 and day 14).
The activity of Formula 1 following oral administration was assessed using the Taxol model (see Study Outline in section 7.1). […] Gabapentin dosed at 150 mg/kg was active for a period of 4 h post-dosing.

In the case of `CC(C)(C)C(=O)O[C@@H]1[C@@H]2[C@H]3C[C@H](C[C@@H]1N3Cc1ccccn1)CN2C(=O)CC(F)(F)F` (relative stereo) [Formula 1, (2S*,3S*,3aS*,6R*,7aR*)-1-(pyridin-2-ylmethyl)-4-(3,3,3-trifluoropropanoyl)octahydro-1H-2,6-methanopyrrolo[3,2-b]pyridin-3-yl pivalate], the “activity in pain-related models” value [1] was “showed activity in pain-related models”, the “effect on blood pressure” value [1] was “no effect on blood pressure” and the “effect on bodyweight or food consumption” value [1] was “no effect on bodyweight or food consumption”. The “effect on specific CNS-related tests” value [1] was “no effect on specific CNS-related tests”, the effect on swelling [1] was “not effective on swelling” and the post-mortem finding [1] was “no post-mortem finding”. For the same compound, the “withdrawal threshold of naïve animals” value [1] was “without affecting the withdrawal threshold of naïve animals”, the “change of activity on continuous dosing” value [2] was “increase in compound activity” and the “withdrawal force (von Frey)” value ([2]; 2 h post-single dose) was “not effective”. The withdrawal threshold ([2]; daily oral 50 mg/kg, study day 11, 2 h post-treatment) was “significant increase in the withdrawal threshold”, the “effect on body weight gain” value [3] was “did not affect body weight gain” and the “Response to cold stimuli (2 ± 1° C. )” value [4] was 20.6 ± 11.39 s. The “Response to heat stimuli (50 ± 1° C. )” value [4] was 12.87 ± 2.59 s, the “basal response to cold or heat stimuli” value [4] was “not effective in altering the basal response” and the “Dose of maximum activity” value [5] was 30 mg/kg. For the same compound, the “Duration of activity at maximum effect” value [5] was greater than 4 H, the “Peak of activity (T)” value [5] was 2 H and the “Level of activity (% of maximum effect-baseline)” value ([5]; repeated daily administration) was 33%. For the same compound, the “concentration in feces after 8 h post-dosing” value ([6]; intravenous 5 mg/kg) was “greater than 1 μg/g”, the “peak concentration in feces” value ([6]; intravenous 5 mg/kg) was 33 µg/g and the “time to peak concentration in feces” value ([6]; intravenous 5 mg/kg) was no more than 5 min. For the same compound, the “concentration in feces after 8 h post-dosing” value ([6]; oral 50 mg/kg) was “greater than 1 μg/g”, the “peak concentration in feces” value ([6]; oral 50 mg/kg) was 150 µg/g and the “time to peak concentration in feces” value ([6]; oral 50 mg/kg) was no more than 60 min. For the same compound, the “Cerep activity screen result” value [7] was “negative”, the HL_Lambda_z [8] was 0.39 h and the “body weight at end” value ([9]; 10 mg/kg IP for 31 days) was 25.49 ± 0.46 g. For the same compound, the “body weight at start” value ([9]; 10 mg/kg IP for 31 days) was 21.44 ± 0.18 g, the body weight gained ([9]; 10 mg/kg IP for 31 days) was 15.64% and the “body weight at 4 days” value ([9]; 4-day observation) was 25.82 ± 1.25 g. For the same compound, the “body weight at start” value ([9]; 4-day observation) was 25.28 ± 1.04 g, the “effect on body weight gain” value ([9]; naïve mice, dosing for 31 days) was “did not affect body weight gain” and the Findings ([10]; IP, 10 mg/kg, 31 days) was “NPF”. The Findings ([10]; IP, 30 mg/kg, 5 days) was “NPF”, the Findings ([10]; PO, 50 mg/kg, 5 days) was “NPF” and the Findings ([10]; SC, 60 mg/kg, 5 days) was “NPF”. The tolerability ([10]; mice, 5 days intraperitoneal dosing at 30 mg/kg) was “well tolerated”, the tolerability ([10]; mice, 5 days oral dosing at 50 mg/kg) was “well tolerated” and the tolerability ([10]; mice, 5 days subcutaneous dosing at 60 mg/kg) was “well tolerated”. For the same compound, the tolerability ([10]; mouse, single dose of 100 mg/kg) was “tolerated”, the fraction unbound (in vitro; human plasma) was 0.08 and the fraction unbound (in vitro; mouse plasma) was 0.16. For the same compound, the withdrawal force ([11]; Taxol mice, oral 50 mg/kg, 2 h post-single administration, study day 8) was “active in fully reversing the withdrawal force”, the withdrawal force ([11]; Taxol mice, oral 50 mg/kg, 24 h post-dosing (study day 14 pre-dosing)) was “significantly active” and the tolerance effect ([11]; Taxol mice, oral 50 mg/kg, repeated daily dosing) was “No tolerance effect was noted”. The “heat hyperalgesia (hotplate test)” value ([11]; Taxol mice, oral 50 mg/kg, 50 mg/kg) was “No activity was found; also recorded: not statistically different from the vehicle-treated group”, the “Dose of maximum activity” value ([11]; Taxol model, PO, mice) was less than 50 mg/kg and the “Duration of activity at maximum effect” value ([11]; Taxol model, PO, mice) was 24 H. For the same compound, the “Level of activity (% of maximum effect-baseline)” value ([11]; Taxol model, PO, mice) was 100% and the “Peak of activity (T)” value ([11]; Taxol model, PO, mice) was 2-6 H.
